Test results reported in PMC6517080 (Chembiochem : a European journal of chemical biology, 2018).

Biological target: antithrombin (AT) (Homo sapiens, UniProt P01008)
Assay: ITC
Assay type: binding

Chain of antithrombin (AT) (P01008 33-464): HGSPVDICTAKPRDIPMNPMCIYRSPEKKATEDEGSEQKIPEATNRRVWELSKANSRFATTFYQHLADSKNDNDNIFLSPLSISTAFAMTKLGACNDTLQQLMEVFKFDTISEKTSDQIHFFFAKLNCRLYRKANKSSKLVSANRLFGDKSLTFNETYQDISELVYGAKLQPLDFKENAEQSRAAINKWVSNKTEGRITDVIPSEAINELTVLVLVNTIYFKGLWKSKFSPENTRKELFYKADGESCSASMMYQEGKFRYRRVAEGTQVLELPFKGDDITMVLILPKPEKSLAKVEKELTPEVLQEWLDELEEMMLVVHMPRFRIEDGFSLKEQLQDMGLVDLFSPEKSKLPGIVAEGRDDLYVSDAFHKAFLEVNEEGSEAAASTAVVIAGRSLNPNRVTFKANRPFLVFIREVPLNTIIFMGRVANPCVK

| Kd [nM] | Structure (SMILES) |
| --- | --- |
| 1290 | O=C(O)[C@H]1O[C@@H](Oc2ccc([N+](=O)[O-])cc2)[C@H](O)[C@@H](O)[C@@H]1O[C@H]1O[C@H](COS(=O)(=O)O)[C@@H](O[C@@H]2O[C@@H](C(=O)O)[C@@H](O[C@H]3O[C@H](COS(=O)(=O)O)[C@@H](O[C@@H]4O[C@H](C(=O)O)[C@@H](O[C@H]5O[C@H](COS(=O)(=O)O)[C@@H](O)[C@H](O)[C@H]5NS(=O)(=O)O)[C@H](O)[C@H]4O)[C@H](OS(=O)(=O)O)[C@H]3NS(=O)(=O)O)[C@H](O)[C@H]2O)[C@H](O)[C@H]1NS(=O)(=O)O [hexa-8] |
| 551 | O=C(O)[C@H]1O[C@@H](Oc2ccc([N+](=O)[O-])cc2)[C@H](O)[C@@H](O)[C@@H]1O[C@H]1O[C@H](COS(=O)(=O)O)[C@@H](O[C@@H]2O[C@@H](C(=O)O)[C@@H](O[C@H]3O[C@H](COS(=O)(=O)O)[C@@H](O[C@@H]4O[C@H](C(=O)O)[C@@H](O[C@H]5O[C@H](COS(=O)(=O)O)[C@@H](O)[C@H](O)[C@H]5NS(=O)(=O)O)[C@H](O)[C@H]4O)[C@H](OS(=O)(=O)O)[C@H]3NS(=O)(=O)O)[C@H](O)[C@H]2OS(=O)(=O)O)[C@H](O)[C@H]1NS(=O)(=O)O [hexa-4] |
